# Assay results: ChEMBL document CHEMBL4411258, “Novel natural compounds from endophytic fungi with anticancer activity” (Eur J Med Chem, 2018)
# Legend:
# A549 [1] = assay: Cytotoxicity against human A549 cells after 48 hrs by MTT assay; format: functional, cell-based; conditions: Homo sapiens, A549, 48 h; read-out: IC50
# MCF7 [2] = assay: Cytotoxicity against human MCF7 cells after 48 hrs by MTS assay; format: functional, cell-based; conditions: MCF7, 48 h
# HL-60 [3] = assay: Cytotoxicity against human HL60 cells after 48 hrs by MTT assay; format: functional, cell-based; conditions: HL-60, 48 h
# SMMC-7721 = assay: Cytotoxicity against human SMMC7721 cells after 48 hrs by MTT assay; format: functional, cell-based; conditions: Homo sapiens, SMMC-7721, 48 h; read-out: IC50
# SW480 = assay: Cytotoxicity against human SW480 cells after 48 hrs by MTT assay; format: functional, cell-based; conditions: SW480, 48 h
# RPMI-8226 = assay: Cytotoxicity against human RPMI8226 cells after 48 hrs by MTT assay; format: functional, cell-based; conditions: RPMI-8226, 48 h
# MCF7 [4] = assay: Cytotoxicity against human MCF7 cells after 72 hrs by MTT assay; format: functional, cell-based; conditions: MCF7, 72 h
# MDA-MB-231 [5] = assay: Cytotoxicity against human MDA-MB-231 cells after 72 hrs by MTT assay; format: functional, cell-based; conditions: MDA-MB-231, 72 h
# Caco-2 = assay: Cytotoxicity against human Caco2 cells after 72 hrs by MTT assay; format: functional, cell-based; conditions: Caco-2, 72 h
# A2780S = assay: Cytotoxicity against human A2780S cells after 72 hrs by CyQuant dye-based assay; format: functional, cell-based
# A2780cisR = assay: Cytotoxicity against human A2780cisR cells after 72 hrs by CyQuant dye-based assay; format: functional, cell-based
# MIA PaCa-2 = assay: Cytotoxicity against human MIAPaCa2 cells after 48 hrs by MTT assay; format: functional, cell-based; conditions: MIA PaCa-2, 48 h
# MCF7 [6] = assay: Cytotoxicity against human MCF7 cells by MTT assay; format: functional, cell-based
# U2OS = assay: Cytotoxicity against human U2OS cells by MTT assay; format: functional, cell-based
# MCF7 [7] = assay: Cytotoxicity against human MCF7 cells after 48 hrs by sulforhodamine B assay; format: functional, cell-based; conditions: Homo sapiens, MCF7, 48 h
# NCI-H460 = assay: Cytotoxicity against human NCI-H460 cells after 48 hrs by sulforhodamine B assay; format: functional, cell-based; conditions: Homo sapiens, NCI-H460, 48 h
# HCT-116 [8] = assay: Cytotoxicity against human HCT116 cells after 48 hrs by sulforhodamine B assay; format: functional, cell-based; conditions: HCT-116, 48 h
# DNA topoisomerase I = DNA topoisomerase I (Bos taurus, UniProt F1MN93); assay: Inhibition of calf thymus DNA topoisomerase 1 assessed as decrease in relaxation of supercoiled pBR322 DNA after 30 mins by Genview nucleic acid staining based agarose gel electrophoresis
# A549 [9] = assay: Cytotoxicity against human A549 cells by MTS assay; format: functional, cell-based
# MDA-MB-231 [10] = assay: Cytotoxicity against human MDA-MB-231 cells by MTS assay; format: functional, cell-based
# HepG2 = assay: Cytotoxicity against human HepG2 cells by MTS assay; format: functional, cell-based
# HCT-116 [11] = assay: Cytotoxicity against human HCT116 cells by MTS assay; format: functional, cell-based
# THP-1 = assay: Cytotoxicity against human THP1 cells by MTS assay; format: functional, cell-based
# MMQ = assay: Cytotoxicity against rat MMQ cells by MTT assay; format: functional, cell-based
# GH3 = assay: Cytotoxicity against rat GH3 cells by MTT assay; format: functional, cell-based
# HL-60 [12] = assay: Cytotoxicity against human HL60 cells; format: functional, cell-based
# HeLa = assay: Cytotoxicity against human HeLa cells after 48 hrs by MTS assay; format: functional, cell-based
# T-24 = assay: Cytotoxicity against human T24 cells after 48 hrs by MTS assay; format: functional, cell-based; conditions: T-24, 48 h
# A549 [13] = assay: Cytotoxicity against human A549 cells after 48 hrs by MTS assay; format: functional, cell-based; conditions: A549, 48 h
# DNA topoisomerase I, sequence (F1MN93 whole entry): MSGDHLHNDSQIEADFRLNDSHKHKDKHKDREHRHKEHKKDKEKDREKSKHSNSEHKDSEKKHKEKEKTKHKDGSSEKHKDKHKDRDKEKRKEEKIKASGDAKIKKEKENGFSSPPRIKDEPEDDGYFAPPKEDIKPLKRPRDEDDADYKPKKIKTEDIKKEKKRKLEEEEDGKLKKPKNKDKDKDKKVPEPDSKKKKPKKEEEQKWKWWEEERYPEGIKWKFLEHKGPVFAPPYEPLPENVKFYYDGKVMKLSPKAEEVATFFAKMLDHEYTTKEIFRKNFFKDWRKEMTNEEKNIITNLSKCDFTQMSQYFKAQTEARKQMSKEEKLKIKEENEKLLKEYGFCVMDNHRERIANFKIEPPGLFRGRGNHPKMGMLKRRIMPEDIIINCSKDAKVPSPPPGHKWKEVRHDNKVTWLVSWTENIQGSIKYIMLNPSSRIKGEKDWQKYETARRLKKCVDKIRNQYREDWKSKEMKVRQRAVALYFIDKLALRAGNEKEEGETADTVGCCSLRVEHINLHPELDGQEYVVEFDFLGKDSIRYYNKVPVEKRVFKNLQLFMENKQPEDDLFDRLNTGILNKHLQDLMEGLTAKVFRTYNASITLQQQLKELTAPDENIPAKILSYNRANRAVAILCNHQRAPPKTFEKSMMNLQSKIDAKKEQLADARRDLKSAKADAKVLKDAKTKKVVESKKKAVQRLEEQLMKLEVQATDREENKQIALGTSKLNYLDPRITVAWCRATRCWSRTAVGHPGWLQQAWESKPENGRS
smiles,measurement,setting,value
COC(=O)C1=C[C@@H](C)C[C@H]2CC[C@@H](O)[C@@]12O,IC50,A549 [1],3.6 to 16.2 µM
same,IC50,MCF7 [2],3.6 to 16.2 µM
same,IC50,HL-60 [3],3.6 to 16.2 µM
same,IC50,SMMC-7721,3.6 to 16.2 µM
same,IC50,SW480,3.6 to 16.2 µM
same,IC50,RPMI-8226,3.6 to 16.2 µM
OCC(O)C(O)C(O)C(O)C(O)O[C@H]1[C@H](O)[C@@H](O)[C@H](O)O[C@@H]1CO (stereo not given in full),EC50,MCF7 [4],97.6 µM
same,EC50,MDA-MB-231 [5],92.4 µM
same,EC50,Caco-2,99.4 µM
CCCCC/C=C/C1=C(CO)C(=O)[C@H]2O[C@@]2(C/C=C(\C)C(=O)O)C1=O,IC50,A2780S,3.3 µM
same,IC50,A2780cisR,5.1 µM
CCCCC/C=C1/C(=O)OC(=O)[C@@H]1C,IC50,MIA PaCa-2,16 µM
Cc1cc(O)c(C(=O)c2cc(O)cc(O)c2C=O)c(O)c1,IC50,MCF7 [6],16.8 µM
same,IC50,U2OS,11.6 µM
C/C=C/[C@@H]1OC(=O)C2=C[C@H](O)[C@@H](/C=C/C)O[C@H]21,IC50,MCF7 [7],22.5 µM
same,IC50,NCI-H460,1 µM
same,IC50,HCT-116 [8],6.2 µM
Cc1cc(O)c2c(c1)[C@H](O)[C@H]1C=C[C@H](O)[C@@H](O)[C@@H]1C2=O,IC50,DNA topoisomerase I,23 µM
CCOC(=O)c1c(O)cc(O)cc1CCCCCCCC(C)O (stereo not given),IC50,A549 [9],13.3 µM
same,IC50,MDA-MB-231 [10],10.1 µM
same,IC50,HepG2,12.5 µM
same,IC50,HCT-116 [11],11.9 µM
same,IC50,THP-1,39.7 µM
Cc1cc(O)cc2c1Oc1c(Cc3ccc(O)cc3)c(O)cc(C)c1C(=O)O2,IC50,MMQ,3.09 µM
same,IC50,GH3,3.64 µM
COc1cc2c(c3c1Cc1c(cc(O)c(CO)c1C(=O)O)O3)C[C@H]1[C@H](C)CO[C@@]1(C)O2,IC50,HL-60 [12],12.4 µM
COC(=O)c1cc(OC)cc(O)c1C(=O)c1c(O)cc(C)c2c1O[C@@](C)(CC(=O)[C@@]13C[C@H](O)[C@@H]4O[C@]4(CC=C(C)C)[C@@H]1O3)C2,IC50,HeLa,44.3 µM
same,IC50,T-24,39.3 µM
same,IC50,A549 [13],35.3 µM
same,IC50,MCF7 [2],38.3 µM
